In article PMC5882164, “A novel calcimimetic agent, evocalcet (MT-4580/KHK7580), suppresses the parathyroid cell function with little effect on the gastrointestinal tract or CYP isozymes in vivo and in vitro” (PLoS ONE, 2018):
“And” between values parts separate entries of the source, which are not always exact repeats. Equal entries are not always repeated. Where two headings read alike, the source gives them in different places.

Assays:
serum calcium = assay: 5/6 nephrectomized rats study: serum calcium level; assay type: in vivo, rat; parameters: Serum Ca levels: unit not given here; details: 5/6 Nx rats
Experimental: Rats were 5/6 nephrectomized in two steps. Under anesthesia (pentobarbital, 50 mg/kg; intraperitoneally) and analgesia (lidocaine; topically), two-thirds of the left kidney was removed, and then the right kidney was removed after a seven-day interval. Seven days after the completion of 5/6 nephrectomy, the FR-2 diet was changed to a high-phosphate diet, containing 0.6% calcium and 0.9% phosphate (Oriental Yeast Co., Ltd., Tokyo, Japan). Approximately 2 weeks after the initiation of the high-phosphate diet, the 5/6 Nx rats were divided into five groups (n = 12/group) matched in terms of their body weight as well as their blood urea nitrogen (BUN) and serum PTH and calcium levels.
In the single-dose study, blood samples were collected from the tail vein before and at 0.5, 2, 4, 8, 24, 48, and 72 h after the oral administration of vehicle (0.5% methyl cellulose solution) or evocalcet (0.03, 0.1, 0.3, or 1 mg/kg). In the repeated-dose study, vehicle or evocalcet was orally administered to the respective groups once daily for 14 days. Blood samples were obtained from the tail vein before the first administration and after the seventh and last administrations.
The serum PTH level was measured using a Rat Intact PTH ELISA kit (Immutopics, Inc., San Clemente, CA). The serum calcium, phosphate and BUN levels were measured using an auto analyzer (Hitachi High-Technologies Corporation., Tokyo, Japan) or the following test kits: the Calcium E-test WAKO, the Phospha C-test WAKO, or the Blood Urea nitrogen B-test WAKO (Wako Pure Chemical Industries, Ltd., Osaka, Japan).

[1] = Pharmacokinetics of evocalcet after oral administration to male rats; details: rat, in vivo; for AUC(0-inf): AUC0-∞
Experimental: The plasma concentrations of evocalcet were determined after single or repeated oral administration in both normal and 5/6 Nx rats. The pharmacokinetic (PK) parameters of the rat plasma concentrations were calculated individually using Phoenix WinNonlin 6.2, a PK analysis software program (Pharsight Corporation, Sunnyvale, CA).

C[C@@H](N[C@H]1CCN(c2ccc(CC(=O)O)cc2)C1)c1cccc2ccccc12 [evocalcet]
Serum Ca levels after the first administration, Mean (serum calcium; 0.3 mg/kg, time 8 h, group mean): 7.218 | Serum Ca levels after the first administration, Mean (serum calcium; 0.3 mg/kg, time 24 h, group mean): 7.101 | Serum Ca levels (serum calcium; 1 mg/kg, day 0 (before), group mean): 7.784 | Serum Ca levels (serum calcium; 1 mg/kg, day 0 (before), individual rats, 1 mg/kg): 7.396 and 7.591 and 7.831 and 7.728 and 8.433 and 7.868 and 8.231 and 7.824 and 8.217 and 9.292 and 6.900 and 6.102 | Serum Ca levels (serum calcium; 1 mg/kg, day 7 (24 h after administration), group mean): 5.027 | Serum Ca levels (serum calcium; 1 mg/kg, day 7 (24 h after administration), individual rats, 1 mg/kg): 5.540 and 3.798 and 5.148 and 4.511 and 4.963 and 5.487 and 4.665 and 5.044 and 4.307 and 5.493 and 4.570 and 6.793 | Serum Ca levels (serum calcium; 1 mg/kg, day 14 (24 h after administration), group mean): 4.801 | Serum Ca levels (serum calcium; 1 mg/kg, day 14 (24 h after administration), individual rats, 1 mg/kg): 5.359 and 3.730 and 4.903 and 4.736 and 4.928 and 5.192 and 4.708 and 5.906 and 3.598 and 4.859 and 4.220 and 5.475 | Serum Ca levels after the first administration, Mean (serum calcium; 1 mg/kg, time 0 h, group mean): 7.784 | Serum Ca levels after the first administration, Mean (serum calcium; 1 mg/kg, time 0.5 h, group mean): 6.460 | Serum Ca levels after the first administration, Mean (serum calcium; 1 mg/kg, time 2 h, group mean): 5.290 | Serum Ca levels after the first administration, Mean (serum calcium; 1 mg/kg, time 4 h, group mean): 5.870 | Serum Ca levels after the first administration, Mean (serum calcium; 1 mg/kg, time 8 h, group mean): 6.299 | Serum Ca levels after the first administration, Mean (serum calcium; 1 mg/kg, time 24 h, group mean): 6.253 | Doses that steadily decreased the serum calcium level (serum calcium; once daily oral for 14 days, 24 h after administration on days 7 and 14): ≥ 0.3 mg/kg | Doses that significantly decreased the serum calcium level (serum calcium; single oral dose, vs vehicle group): ≥ 0.1 mg/kg | bioavailability ([1]; Sprague-Dawley, Bioavailability): > 80% | AUC(0-inf) ([1]; Sprague-Dawley, po, 0.1 mg/kg): 819 ng·h/mL | Cmax ([1]; Sprague-Dawley, po, 0.1 mg/kg): 222 ng/mL | bioavailability ([1]; Sprague-Dawley, po, 0.1 mg/kg, F (bioavailability)): 81.6% | half-life ([1]; Sprague-Dawley, po, 0.1 mg/kg, t1/2): 6.66 h | Tmax ([1]; Sprague-Dawley, po, 0.1 mg/kg, tmax): 0.25 h | AUC(0-inf) ([1]; Sprague-Dawley, po, 0.3 mg/kg): 2580 ng·h/mL | Cmax ([1]; Sprague-Dawley, po, 0.3 mg/kg): 600 ng/mL | bioavailability ([1]; Sprague-Dawley, po, 0.3 mg/kg, F (bioavailability)): 85.6% | half-life ([1]; Sprague-Dawley, po, 0.3 mg/kg, t1/2): 5.77 h | Tmax ([1]; Sprague-Dawley, po, 0.3 mg/kg, tmax): 0.38 h | t1/2 ([1]; Sprague-Dawley, po, 1 mg/kg): 6.13 h | AUC(0-inf) ([1]; Sprague-Dawley, po, 1 mg/kg): 8440 ng·h/mL | Cmax ([1]; Sprague-Dawley, po, 1 mg/kg): 2190 ng/mL | bioavailability ([1]; Sprague-Dawley, po, 1 mg/kg, F (bioavailability)): 84.2% | Tmax ([1]; Sprague-Dawley, po, 1 mg/kg, tmax): 0.81 h | half-life ([1]; normal rats, single oral dose 1 mg/kg, mean, read-out: t1/2 (converted)): 6.13 h | AUC(0-inf) ([1]; po, 0.1 mg/kg): 981 ng·h/mL | Cmax ([1]; po, 0.1 mg/kg): 221 ng/mL | half-life ([1]; po, 0.1 mg/kg, t1/2): 5.71 h | Tmax ([1]; po, 0.1 mg/kg, tmax): 0.25 h | Tmax ([1]; po, 0.3 mg/kg): 0.50 h | AUC(0-inf) ([1]; po, 0.3 mg/kg): 2260 ng·h/mL | Cmax ([1]; po, 0.3 mg/kg): 570 ng/mL | half-life ([1]; po, 0.3 mg/kg, t1/2): 5.68 h | Tmax ([1]; po, 0.3 mg/kg, tmax): 0.25 h | Tmax ([1]; po, 1 mg/kg): 1.00 h | AUC(0-inf) ([1]; po, 1 mg/kg): 7890 ng·h/mL | Cmax ([1]; po, 1 mg/kg): 1810 ng/mL | half-life ([1]; po, 1 mg/kg, t1/2): 6.99 h
